According to patent US10450300B2, “Wnt signaling pathway inhibitors and therapeutic applications thereof” (Suzhou Yunxuan Yiyao Keji Youxian Gongsi, priority 2015, dated 2019):

Test system: Wnt pathway
Assay: Wnt pathway Super-top flash (STF) reporter gene assay (primary assay)
Assay type: cell-based
Settings: HEK293 STF cells co-cultured 1:1 with L Wnt3A cells; 48 h incubation; inhibition of luminescence signaling
Procedure: The primary assay is based on Wnt pathway Super-top flash (STF) reporter gene assay:
HEK293 STF stable clones (HEK293 cells stably transfected with “Super-Top Flash” TCF-luciferase reporter plasmid) were kept in complete culture medium (DMEM with 4 mM L-Gln, 1.5 g/L sodium bicarbonate and 4.5 g/L glucose containing 6 μg/mL Blasticidin and 10% FBS). L Wnt3A cells (CRL-2647, ATCC) were kept in DMEM (Gibico) containing 10% FBS (Hyclone). HEK293 STF and L Wnt3A cells were harvested when 90% confluence and cell suspension was mixed with a fixed ratio of 1:1 (HEK293 STF: L Wnt3A). 100 μL/well of mixed cells suspension was added to the 96-well-plate with final cell concentration of 12,000 cells/well and then cultured for an additional 24 hours before adding compounds.
Compounds were diluted in DMSO in sequence and then diluted with DMEM medium. 20 μL medium containing compound was added to the cells according to the pre-setting dose. Cell plates were incubated at 37° C. for an additional 48 hours.
50 μL luciferase solution (Bright-Glo, Promega) was added to each well […] the 48 h incubation. The plates were incubated at room temperature for 5 min under gentle shaking. Luminescence signaling was measured with a plate reader (PHERAstar FS, BMG). The IC50 (potency) of compounds was calculated based on the inhibition of luminescence signaling.

SMILES	IC50 [nM]
Cc1cc(-c2ccc(CNc3ncnc(N4CCc5ccccc5C4C)c3F)cc2)ccn1 (stereo not drawn) [Compound A-70]	147
N#Cc1cnc2cc(CNc3ncnc(-c4ccc5ncccc5c4)c3F)ccc2c1 [Compound A-71]	0.29
N#Cc1cnc2cc(CNc3ncnc(N4CCc5ncccc5C4)c3F)ccc2c1 [Compound A-72]	0.64
N#Cc1ccc2nc(CNc3ncnc(N4CCc5ncccc5C4)c3F)ccc2c1 [Compound A-74]	1.6
N#Cc1ccc2cc(CNc3ncnc(-c4ccc5ncccc5c4)c3F)cnc2c1 [Compound A-75]	0.52
N#Cc1ccc2cc(CNc3ncnc(N4CCc5ncccc5C4)c3F)cnc2c1 [Compound A-76]	1.3
Fc1c(NCc2ccc(-c3ccncn3)cc2)ncnc1-c1ccc2ncccc2c1 [Compound A-77]	1.6
Cc1cc(-c2ncc(CNc3ncnc(N4CCS(=O)(=O)CC4)c3F)cc2F)ccn1 [Compound A-79]	416
Cc1cc(-c2ncc(CNc3ncnc(N4CCNC(=O)C4)c3F)cc2F)ccn1 [Compound A-80]	768
Cc1cc(-c2ncc(CNc3ncnc(NCC4CC4)c3F)cc2F)ccn1 [Compound A-81]	625
Cc1cc(-c2ncc(CNc3ncnc(NCc4cccnc4)c3F)cc2F)ccn1 [Compound A-82]	338
Cn1nc(CNc2ncnc(-c3ccc4ncccc4c3)c2F)ccc1=O [Compound A-83]	3000
COc1cc(CNc2ncnc(-c3cc4cccnc4cn3)c2F)cnc1-c1ccnc(C)c1 [Compound A-84]	0.26
Cc1cc(-c2ncc(CNc3ncnc(-c4cc5cccnc5cn4)c3F)cc2F)ccn1 [Compound A-85, 5-fluoro-N-((3-fluoro-2′-methyl-2,4′-bipyridin-5-yl)methyl)-6-(1,7-naphthyridin-6-yl)pyrimidin-4-amine]	0.14
Cc1cc(-c2ncc(CNc3ncnc(-c4cc5cccnc5cn4)c3F)cc2C#N)ccn1 [Compound A-86]	0.34
Cc1cc(-c2ncc(CNc3ncnc(N4CCn5nccc5C4)c3F)cc2F)ccn1 [Compound A-87]	0.51
Cc1cc(-c2ncc(CNc3ncnc(N4Cc5cccnc5C4)c3F)cc2F)ccn1 [Compound A-88]	7.7
Cc1cc(-c2ncc(CNc3ncnc(N4CCOc5ncccc5C4)c3F)cc2F)ccn1 [Compound A-89]	14
Cc1cc(-c2ncc(CNc3ncnc(N4CCc5nccnc5C4)c3F)cc2F)ccn1 [Compound A-90]	1.2
Cc1cc(-c2ncc(CNc3ncnc(N4CCn5nnnc5C4)c3F)cc2C#N)ccn1 [Compound A-91]	53
Cc1cc(-c2ncc(CNc3ncnc(N4CCn5nncc5C4)c3F)cc2C#N)ccn1 [Compound A-92]	10
Cc1cc(-c2ncc(CNc3ncnc(N4CCn5nnnc5C4)c3F)cc2F)ccn1 [Compound A-93]	40
COc1cc(CNc2ncnc(N3CCn4nccc4C3)c2F)cnc1-c1ccnc(C)c1 [Compound A-94]	0.8

SMILES	IC50 [nM]
Cc1cc(-c2ncc(CNc3ncnc(N4CCn5nncc5C4)c3F)cc2F)ccn1 [Compound A-95]	15
Cc1cc(-c2ncc(CNc3nccc(-c4ccn5nccc5n4)c3F)cc2C#N)ccn1 [Compound A-96]	0.2
Cc1cc(-c2ccc(CNc3nccc(-c4ccc5ncccc5c4)c3F)cc2)ccn1 [Compound A-97]	0.18
Cc1cc(-c2ncc(CNc3nccc(-c4ccc5ncccc5c4)c3F)cc2F)ccn1 [Compound A-98]	0.06
Cc1cc(-c2ncc(CNc3nccc(-c4ccc5ncccc5c4)c3F)cc2C#N)ccn1 [Compound A-99]	0.11
Cc1cc(-c2ncc(CNc3nccc(-c4ccc5ncccc5c4)c3F)cn2)ccn1 [Compound A-100]	0.27
Cc1cc(-c2ccc(CNc3nccc(-c4ccc5ncccc5c4)c3F)cn2)ccn1 [Compound A-101]	0.31
Cc1cc(-c2ccc(C(C)Nc3nccc(-c4ccc5ncccc5c4)c3F)cc2)ccn1 (stereo not drawn) [Compound A-102]	0.54
Cc1cc(-c2ncc(CNc3nccc(-c4cc5cccnc5cn4)c3F)cc2F)ccn1 [Compound A-103]	0.12
Fc1c(-c2ccc3ncccc3c2)ccnc1NCc1ccc(-c2ccncc2)cc1 [Compound A-104]	0.11
Fc1c(-c2ccc3ncccc3c2)ccnc1NCc1ccc(-n2ccnc2)cc1 [Compound A-105]	5.2
COc1cc(CNc2nccc(-c3ccc4ncccc4c3)c2F)cnc1-c1ccnc(C)c1 [Compound A-106]	0.24
Cc1cn(-c2ccc(CNc3nccc(-c4ccc5ncccc5c4)c3F)cc2)cn1 [Compound A-107]	16
Cc1cc(-c2ncc(CNc3nccc(-c4ccc5ncccc5n4)c3F)cc2F)ccn1 [Compound A-108]	1
N#Cc1ccc2nc(CNc3nccc(-c4ccc5ncccc5c4)c3F)ccc2c1 [Compound A-109]	10
Cc1cc(-c2ncc(CNc3nccc(-c4ccc5nnccc5c4)c3F)cc2F)ccn1 [Compound A-110]	1
O=S1(=O)CCN(c2ccc(CNc3nccc(-c4ccc5ncccc5c4)c3F)cn2)CC1 [Compound A-111]	10
CS(=O)(=O)CCNc1ccc(CNc2nccc(-c3ccc4ncccc4c3)c2F)cn1 [Compound A-112]	10
Cn1nccc1-c1ccc(CNc2nccc(-c3ccc4ncccc4c3)c2F)cc1 [Compound A-113]	16
Cc1cc(-c2ncc(CNc3nccc(-c4ccc5nonc5c4)c3F)cc2F)ccn1 [Compound A-114]	8
Cc1cc(-c2ncc(CNc3nccc(-c4cncc(F)c4)c3F)cc2F)ccn1 [Compound A-115]	7
Cc1cc(-c2ncc(CNc3nccc(-c4cncc(Cl)c4)c3F)cc2F)ccn1 [Compound A-116]	8
Cc1cc(-c2ncc(CNc3nccc(-c4ccc(=O)n(C)c4)c3F)cc2F)ccn1 [Compound A-117]	2

SMILES	IC50 [nM]
N#Cc1cnc2cc(CNc3nccc(-c4ccc5ncccc5c4)c3F)ccc2c1 [Compound A-118]	318
N#Cc1ccc2cc(CNc3nccc(-c4ccc5ncccc5c4)c3F)cnc2c1 [Compound A-119]	10
N#Cc1ccc(NCCNc2nccc(-c3ccc4ncccc4c3)c2F)nc1 [Compound A-120]	12
Cc1cc(-c2ncc(CNc3nccc(-c4cc5cccnc5cn4)c3F)cc2C#N)ccn1 [Compound A-121, 5-((3-fluoro-4-(1,7-naphthyridin-6-yl)pyridin-2-ylamino)methyl)-2′-methyl-2,4′-bipyridine-3-carbonitrile]	0.06
COc1cc(CNc2nccc(-c3cc4cccnc4cn3)c2F)cnc1-c1ccnc(C)c1 [Compound A-122]	0.13
Cc1cc(-c2ncc(CNc3nccc(-c4ccc5ncnn5c4)c3F)cc2F)ccn1 [Compound A-123]	0.12
Cc1cc(-c2ncc(CNc3nccc(-c4ccc5nccnc5c4)c3F)cc2F)ccn1 [Compound A-124]	0.12
COc1cc(CNc2nccc(-c3ccc4ncccc4n3)c2F)cnc1-c1ccnc(C)c1 [Compound A-125]	0.06
Cc1cc(-c2ncc(CNc3nccc(-c4ccc5ncccc5n4)c3F)cc2C#N)ccn1 [Compound A-126]	0.04
Cc1cc(-c2ccnc(NCc3cnc(-c4ccnc(C)c4)c(C#N)c3)c2F)ccn1 [Compound A-127]	0.34
Cc1cc(-c2ncc(CNc3nccc(-c4cnn(C)c4)c3F)cc2C#N)ccn1 [Compound A-128]	1.8
COc1cncc(-c2ccnc(NCc3cnc(-c4ccnc(C)c4)c(C#N)c3)c2F)c1 [Compound A-129]	0.4
Cc1cc(-c2ncc(CNc3nccc(-c4cncc(Cl)c4)c3F)cc2C#N)ccn1 [Compound A-130]	0.11
Cc1cc(-c2ncc(CNc3nccc(-c4cncc(C#N)c4)c3F)cc2C#N)ccn1 [Compound A-131]	1
Cc1cncc(-c2ccnc(NCc3cnc(-c4ccnc(C)c4)c(C#N)c3)c2F)c1 [Compound A-132]	0.25
Cc1cc(-c2ccc(CNc3cc(N4CCc5ccccc5C4)ncn3)cc2)ccn1 [Compound A-133]	34
Cc1cc(-c2ccc(CNc3cc(-c4ccc5ccccc5c4)ncn3)cc2)ccn1 [Compound A-134]	24
Cc1cc(-c2ccc(CNc3cc(Cl)nc(N4CCc5ccccc5C4)n3)cc2)ccn1 [Compound A-135]	3000
Cc1cc(-c2ccc(CNc3cc(N4CCCC4)nc(N4CCc5ccccc5C4)n3)cc2)ccn1 [Compound A-136]	4000
CSc1ncc2c(n1)CCN(c1cc(NCc3ccc(-c4ccnc(C)c4)cc3)ncn1)C2=O [Compound A-137, 6-(6-(4-(2-methylpyridin-4-yl)benzylamino)pyrimidin-4-yl)-2-(methylthio)-7,8-dihydropyrido[4,3-d]pyrimidin-5(6H)-one]	3000
CNc1ncc2c(n1)CCN(c1cc(NCc3ccc(-c4ccnc(C)c4)cc3)ncn1)C2=O [Compound A-138, 2-(methylamino)-6-(6-(4-(2-methylpyridin-4-yl)benzylamino)pyrimidin-4-yl)-7,8-dihydropyrido[4,3-d]pyrimidin-5(6H)-one]	712
Cc1cc(-c2ccc(CNc3cc(-c4ccc5ccccc5c4)nc(C)n3)cc2)ccn1 [Compound A-139]	3000
CSc1nc(NCc2ccc(-c3ccnc(C)c3)cc2)cc(-c2ccc3ccccc3c2)n1 [Compound A-140]	3000
